Reference: US5583147A, “Amides for the treatment of atherosclerosis” (The Dupont Merck Pharmaceutical Company, priority 1994, dated 1996)

Biological target: T1, Acyl-CoA: Cholesterol Acyltransferase (ACAT) (Rattus norvegicus, UniProt Q7TQM4)
T1 construct: centrifuged at 105,000×g for 1 hour to pellet the microsomes; from tissue; host or cells: liver microsomes of male Sprague Dawley rats
T1 sequence (Q7TQM4 1-524): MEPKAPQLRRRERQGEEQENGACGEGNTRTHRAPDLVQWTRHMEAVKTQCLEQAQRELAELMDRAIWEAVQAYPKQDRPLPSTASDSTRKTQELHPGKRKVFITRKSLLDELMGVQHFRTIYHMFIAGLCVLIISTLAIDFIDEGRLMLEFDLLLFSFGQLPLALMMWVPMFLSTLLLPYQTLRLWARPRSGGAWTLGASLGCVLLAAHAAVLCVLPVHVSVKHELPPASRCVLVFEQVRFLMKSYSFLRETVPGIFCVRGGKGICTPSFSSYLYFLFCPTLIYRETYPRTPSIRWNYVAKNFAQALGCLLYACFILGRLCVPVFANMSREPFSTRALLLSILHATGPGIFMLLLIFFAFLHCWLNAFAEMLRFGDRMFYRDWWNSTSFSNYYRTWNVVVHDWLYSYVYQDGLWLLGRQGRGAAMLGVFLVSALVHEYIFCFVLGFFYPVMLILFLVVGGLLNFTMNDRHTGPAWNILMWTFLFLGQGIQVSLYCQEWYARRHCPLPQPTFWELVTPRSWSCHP
Experiment: Inhibition of Acyl-CoA: Cholesterol Acyltransferase (ACAT) in Hepatic Microsomes (In Vitro Assay)
Format: biochemical, rat (male Sprague Dawley)
Conditions: 75 μM 14C-oleoyl-CoA, pH 7.4, 37° C., 10 min, read-out: ACAT Inhibitory Activity (In Vitro) (IC50)
Experimental: A. Assay of the Inhibition of Acyl-CoA: Cholesterol Acyltransferase (ACAT) in Hepatic Microsomes (In Vitro Assay)
The ability of the compounds to inhibit ACAT, the enzyme responsible for the intracellular synthesis of cholesteryl esters, was tested as follows. Male Sprague Dawley rats weighing 150-300 g, were fed rat chow ad libitum. The animals were fasted for twenty-four hours prior to being euthanized by CO2. The livers were perfused in situ with 50 ml of cold 0.25 sucrose, excised, and homogenized in three volumes of 0.1M phosphate buffer, pH 7.4, that contained 0.5 mM EDTA (ethylenediamine-tetraacetic acid), 1.0 mM glutathione, 0.25M sucrose and […] leupeptin. Microsomes were obtained by differential centrifugation; the supernatant from an initial spin at 15,000×g for 15 minutes was centrifuged at 105,000×g for 1 hour to pellet the microsomes. The microsomes were suspended in homogenization buffer, reisolated by centrifugation, and stored at -70° C. Microsomes were used within one month of preparation.
The control assay in a final volume of 200 μl consisted of 200 μg of microsomal protein, 75 μM ^14 C-oleoyl-CoA (10,000 dpm/nmol) in 0.1M phosphate, pH 7.4, that contained 1 mM glutathione. Compounds were added in 5 μl of DMSO (dimethyl sulfoxide) and additional controls were run with DMSO only. All components, except the oleoyl-CoA, were preincubated for 15 min. at 37° C. prior to the initiation of the reaction by the addition of oleoyl-CoA. The assay was terminated after 10 min by the addition of 4 ml of chloroform:methanol (2:1, v/v). 20,000 dpm of ^3 H-cholesteryl oleate and 10 μg of unlabeled cholesteryl oleate and oleic acid were added as an internal standard and carriers, respectively. After allowing 10 min. for lipid extraction, the samples were centrifuged at 1,000×g for 10 min to separate the solvent layers. The chloroform layer containing the neutral lipids was spotted onto a Baker SI250-Pa silica gel TLC plate and the plate developed using a hexane:diethyl ether:acetic acid (170:30:1) v/v/v) mobile phase. The lipids were visualized by their interaction with iodine vapor and the cholesteryl ester spot was scraped into a scintillation vial and counted. The specific activity of ACAT in the control incubation averaged 260 pmol/min/mg microsomal protein. The data obtained are expressed as the concentration at which ACAT activity is inhibited by 50% (IC50).

| Compound | IC50 |
| --- | --- |
| COc1ccc(CSC(C(=O)Nc2c(SC)cc(C)nc2SC)c2ccc(F)cc2)cc1 (stereo not drawn) [Example 154, N-[2,4-bis(methylthio)-6-methyl-3-pyridyl]-α-(4-methoxy-benzylthio)-4-fluoro-phenylacetamide] | < 1 µM |
| CSc1cc(C)nc(SC)c1NC(=O)C(Sc1ccc(F)cc1)c1ccc(F)cc1 (stereo not drawn) [Example 166, N-[2,4-bis(methylthio)-6-methyl-3-pyridyl]-α-(4-fluoro-phenylthio)-4-fluoro-phenylacetamide] | < 1 µM |
| COc1ccc(SC(C(=O)Nc2c(SC)cc(C)nc2SC)c2ccc(F)cc2)cc1 (stereo not drawn) [Example 167, N-[2,4-bis(methylthio)-6-methyl-3-pyridyl]-α-(4-methoxy-phenylthio)-4-fluoro-phenylacetamide] | < 1 µM |
| CCCCCCSC(C(=O)Nc1c(SC)cc(C)nc1SC)c1ccc(Cl)c(Cl)c1 (stereo not drawn) [Example 176, N-[2,4-bis(methylthio)-6-methyl-3-pyridyl]-α-hexylthio-3,4-dichloro-phenylacetamide] | < 1 µM |
| CSc1cc(C)nc(SC)c1NC(=O)C(SCc1ccccc1)c1ccc(Cl)c(Cl)c1 (stereo not drawn) [Example 180, N-[2,4-bis(methylthio)-6-methyl-3-pyridyl]-α-benzylthio-3,4-dichloro-phenylacetamide] | < 1 µM |
| CSc1cc(C)nc(SC)c1NC(=O)C(SCc1ccc(F)cc1)c1ccc(Cl)c(Cl)c1 (stereo not drawn) [Example 181, N-[2,4-bis(methylthio)-6-methyl-3-pyridyl]-α-(4-fluoro-benzylthio)-3,4-dichloro-phenylacetamide] | < 1 µM |
| COc1ccc(CSC(C(=O)Nc2c(SC)cc(C)nc2SC)c2ccc(Cl)c(Cl)c2)cc1 (stereo not drawn) [Example 182, N-[2,4-bis(methylthio)-6-methyl-3-pyridyl]-α-(4-methoxy-benzylthio)-3,4-dichloro-phenylacetamide] | < 1 µM |
| CCCCCCSC(C(=O)Nc1c(SC)cc(C)nc1SC)c1ccc(F)cc1F (stereo not drawn) [Example 204, N-[2,4-bis(methylthio)-6-methyl-3-pyridyl]-α-hexylthio-2,4-difluoro-phenylacetamide] | < 1 µM |
| COc1ccc(CSC(C(=O)Nc2c(SC)cc(C)nc2SC)c2ccc(F)cc2F)cc1 (stereo not drawn) [Example 210, N-[2,4-bis(methylthio)-6-methyl-3-pyridyl]-α-(4-methoxy-benzylthio)-2,4-difluoro-phenylacetamide] | < 1 µM |
| CCCCCCSC(C(=O)Nc1c(SC)cc(C)nc1SC)c1ccc(OC)c(OC)c1 (stereo not drawn) [Example 232, N-[2,4-bis(methylthio)-6-methyl-3-pyridyl]-α-hexylthio-3,4-dimethoxy-phenylacetamide] | < 1 µM |
| COc1ccc(C(SCc2ccccc2)C(=O)Nc2c(SC)cc(C)nc2SC)cc1OC (stereo not drawn) [Example 236, N-[2,4-bis(methylthio)-6-methyl-3-pyridyl]-α-benzylthio-3,4-dimethoxy-phenylacetamide] | < 1 µM |
| CCCCCCSC(C(=O)Nc1c(SC)cc(C)nc1SC)c1ccc(OCCCC)cc1 (stereo not drawn) [Example 260, N-[2,4-bis(methylthio)-6-methyl-3-pyridyl]-α-hexylthio-4-butoxy-phenylacetamide] | < 1 µM |
| CCCCOc1ccc(C(SCc2ccccc2)C(=O)Nc2c(SC)cc(C)nc2SC)cc1 (stereo not drawn) [Example 264, N-[2,4-bis(methylthio)-6-methyl-3-pyridyl]-α-benzylthio-4-butoxy-phenylacetamide] | < 1 µM |

Next, values leading:

| IC50 | Compound |
| --- | --- |
| < 1 µM | COc1ccc(C(SCc2ccc(F)cc2)C(=O)Nc2c(SC)cc(C)nc2SC)cc1OC (stereo not drawn) [Example 237, N-[2,4-bis(methylthio)-6-methyl-3-pyridyl]-α-(4-fluoro-benzylthio)-3,4-dimethoxy-phenylacetamide] |
| < 1 µM | CCCCCCSC(C(=O)Nc1c(SC)cc(C)nc1SC)c1ccc(Oc2ccccc2)cc1 (stereo not drawn) [Example 288, N-[2,4-bis(methylthio)-6-methyl-3-pyridyl]-α-hexylthio-4-phenoxy-phenylacetamide] |
| < 1 µM | CSc1cc(C)nc(SC)c1NC(=O)C(SCc1ccccc1)c1ccc(Oc2ccccc2)cc1 (stereo not drawn) [Example 292, N-[2,4-bis(methylthio)-6-methyl-3-pyridyl]-α-benzylthio-4-phenoxy-phenylacetamide] |
| < 1 µM | CSc1cc(C)nc(SC)c1NC(=O)C(SCc1ccc(Cl)cc1)c1ccc(Oc2ccccc2)cc1 (stereo not drawn) [Example 295, N-[2,4-bis(methylthio)-6-methyl-3-pyridyl]-α-(4-chloro-benzylthio)-4-phenoxy-phenylacetamide] |
| < 1 µM | CCCCCCSC(C(=O)Nc1c(SC)cc(C)nc1SC)c1cccc(Oc2ccccc2)c1 (stereo not drawn) [Example 316, N-[2,4-bis(methylthio)-6-methyl-3-pyridyl]-α-hexylthio-3-phenoxy-phenylacetamide] |
| < 1 µM | CCCCCCSC(C(=O)Nc1c(SC)cc(C)nc1SC)c1cccc(Oc2ccc(Br)cc2)c1 (stereo not drawn) [Example 317, N-[2,4-bis(methylthio)-6-methyl-3-pyridyl]-α-hexylthio-3-(4'-bromophenoxy)-phenylacetamide] |
| < 1 µM | CSc1cc(C)nc(SC)c1NC(=O)C(SCc1ccccc1)c1cccc(Oc2ccccc2)c1 (stereo not drawn) [Example 321, N-[2,4-bis(methylthio)-6-methyl-3-pyridyl]-α-benzylthio-3-phenoxy-phenylacetamide] |
| < 1 µM | CSc1cc(C)nc(SC)c1NC(=O)C(SCc1ccccc1)c1cccc(Oc2ccc(Br)cc2)c1 (stereo not drawn) [Example 322, N-[2,4-bis(methylthio)-6-methyl-3-pyridyl]-α-benzylthio-3-(4'-bromophenoxy)-phenylacetamide] |
| < 1 µM | CSc1cc(C)nc(SC)c1NC(=O)C(SCc1ccc(Cl)cc1)c1cccc(Oc2ccccc2)c1 (stereo not drawn) [Example 325, N-[2,4-bis(methylthio)-6-methyl-3-pyridyl]-α-(4-chloro-benzylthio)-3-phenoxy-phenylacetamide] |
| < 1 µM | CSc1cc(C)nc(SC)c1NC(=O)C(SCc1ccc(Cl)cc1)c1cccc(Oc2ccc(Br)cc2)c1 (stereo not drawn) [Example 326, N-[2,4-bis(methylthio)-6-methyl-3-pyridyl]-α-(4-chloro-benzylthio)-3-(4'-bromophenoxy)-phenylacetamide] |
| < 1 µM | CCCCCCSC(C(=O)Nc1c(SC)cc(C)nc1SC)c1ccc(C(F)(F)F)cc1 (stereo not drawn) [Example 375, N-[2,4-bis(methylthio)-6-methyl-3-pyridyl]-α-hexylthio-4-trifluoromethyl-phenylacetamide] |
| < 1 µM | CSc1cc(C)nc(SC)c1NC(=O)C(SCc1ccccc1)c1ccc(C(F)(F)F)cc1 (stereo not drawn) [Example 379, N-[2,4-bis(methylthio)-6-methyl-3-pyridyl]-α-benzylthio-4-trifluoromethyl-phenylacetamide] |
| < 1 µM | CSc1cc(C)nc(SC)c1NC(=O)C(SCc1ccc(F)cc1)c1ccc(C(F)(F)F)cc1 (stereo not drawn) [Example 380, N-[2,4-bis(methylthio)-6-methyl-3-pyridyl]-α-(4-fluoro-benzylthio)-4-trifluoromethyl-phenylacetamide] |
| < 1 µM | COc1ccc(CSC(C(=O)Nc2c(SC)cc(C)nc2SC)c2ccc(C(F)(F)F)cc2)cc1 (stereo not drawn) [Example 381, N-[2,4-bis(methylthio)-6-methyl-3-pyridyl]-α-(4-methoxy-benzylthio)-4-trifluoromethyl-phenylacetamide] |
| < 1 µM | CSc1cc(C)nc(SC)c1NC(=O)C(Sc1ccc(F)cc1)c1ccc(C(F)(F)F)cc1 (stereo not drawn) [Example 393, N-[2,4-bis(methylthio)-6-methyl-3-pyridyl]-α-(4-fluoro-phenylthio)-4-trifluoromethyl-phenylacetamide] |
| < 1 µM | COc1ccc(SC(C(=O)Nc2c(SC)cc(C)nc2SC)c2ccc(C(F)(F)F)cc2)cc1 (stereo not drawn) [Example 394, N-[2,4-bis(methylthio)-6-methyl-3-pyridyl]-α-(4-methoxy-phenylthio)-4-trifluoromethyl-phenylacetamide] |
